Series [1] deals with hTRPA1 ARD recombinant protein (Homo sapiens, UniProt O75762). The experiment in a line: LSPR binding analysis (OpenSPR, COOH chip). The settings on record: for kon: read-out: association constant (ka); for koff: read-out: dissociation constant (kd). As to the method: The binding capacity of hTRPA1 ARD recombinant protein and AHs was determined by LSPR according to the OpenSPR (Nicoya Life Sciences, Kitchener, ON, Canada) operating procedure using the COOH chip. After the baseline signal was obtained, the sample was washed with 200 µL 80% isopropyl alcohol for 10 s, and 200 µL ethylcarbodiimide/N-hydroxysuccinimide solution was added. The sample loop was rinsed with phosphate-buffered saline (PBS). hTRPA1 (5 µL) was diluted with PBS, incubated for 4 min, and 200 µL blocking solution was added. […] Contact and dissociation time of analytes and protein were 240 s and 160 s, respectively. TraceDrawer software was applied to determine the association constant (ka), dissociation constant (kd), and affinity constant (KD) using a 1:1 model.

Series [2] deals with calcium influx in A549 cells. The series can be described thus: Cellular calcium imaging (Fluo-4) in WT A549 cells. It is filed as cell-based, human. The settings on record: for calcium influx compared with 0 μM AHs: A549 cells, 150, 300, 600, 1200 μM; for calcium influx with HC-030031 pre-treatment compared with AHs treatment alone: A549 cells, HC-030031 50 μM, AHs 150-1200 μM. As for the experimental part:
Wild-type (WT) and TRPA1-KO A549 cells were cultured in McCoy’s 5A Media and F-12K Nutrient Mixture containing 10% fetal bovine serum, respectively. WT/TRPA1-KO A549 cells (5 × 10^4 cells/mL) were seeded in 96-well (100 μL/well) and 6-well (2 mL/well) plates and incubated at 37 °C with 5% CO2 in a humidified incubator for 24 h. WT/TRPA1-KO A549 cells were treated with AHs gradient concentrations (0, 150, 300, 600, 1200 μM) prepared in methanol (1.2 M) for 24 h. […]
(§1) Working solution was prepared according to the instructions of the Fluo-4 Direct calcium assay kit and directly added to WT/TRPA1-KO A549 cells in 96-well plates, which were incubated for 0.5 h and kept away from light after removal from the incubator. Single channel fluorescein isothiocyanate (FITC) levels were measured using a confocal high-content imaging system (IXM-C S150069, Molecular Devices, San Jose, CA, USA).

Series [3] has as its system calcium influx in TRPA1-KO A549 cells. The series can be described thus: Cellular calcium imaging (Fluo-4) in TRPA1-KO A549 cells. It is filed as cell-based, human. The settings on record: AHs 150-1200 μM. As to the method: The hTRPA1 gene sequence (Gene ID: 8989) was obtained from the National Center for Biotechnology Information (NCBI) website (https://www.ncbi.nlm.nih.gov/gene/8989 accessed on 26 May 2022). Three gRNA sequences, namely, T1: 5′-[…]-[…], T16: 5′-[…]-3′, and T20: 5′-[…]-3′, were designed using the CRISPR online design tool (http://crispr.mit.edu/ accessed on 26 May 2022). Transfection of cells with gRNA-Cas9 was validated in test cells. Cell pool examination was performed using Sanger sequencing. Sequencing and tracer analysis were performed using the online tool TIDE (https://tide-calculator.nki.nl/ accessed on 26 May 2022) to investigate the cleavage efficiency of T1, T16, and T20. Cells from the cell pool were diluted in 96-well plates. Clones were observed under a microscope and wells containing single cell clones were labeled. Single cell clones were transferred to 24-well plates for expansion. Validation of knockout (KO) clones was performed via sequencing to confirm insertion and deletion on the genomes of KO clone candidates. Furthermore, mycoplasmas were detected for cloned cells with high KO using the Mycoplasma PCR Detection Kit.
Wild-type (WT) and TRPA1-KO A549 cells were cultured in McCoy’s 5A Media and F-12K Nutrient Mixture containing 10% fetal bovine serum, respectively. WT/TRPA1-KO A549 cells (5 × 10^4 cells/mL) were seeded in 96-well (100 μL/well) and 6-well (2 mL/well) plates and incubated at 37 °C with 5% CO2 in a humidified incubator for 24 h. WT/TRPA1-KO A549 cells were treated with AHs gradient concentrations (0, 150, 300, 600, 1200 μM) prepared in methanol (1.2 M) for 24 h. Additionally, WT/TRPA1-KO A549 cells were pre-treated with TRPA1 special inhibitor HC-030031 (100 μM) for 0.5 h and then treated with AHs gradient concentrations for 24 h.
as §1

For the next series, the system named is zebrafish embryos. The settings on record: cited from earlier work.

hTRPA1 ARD recombinant protein, sequence (O75762 62-609): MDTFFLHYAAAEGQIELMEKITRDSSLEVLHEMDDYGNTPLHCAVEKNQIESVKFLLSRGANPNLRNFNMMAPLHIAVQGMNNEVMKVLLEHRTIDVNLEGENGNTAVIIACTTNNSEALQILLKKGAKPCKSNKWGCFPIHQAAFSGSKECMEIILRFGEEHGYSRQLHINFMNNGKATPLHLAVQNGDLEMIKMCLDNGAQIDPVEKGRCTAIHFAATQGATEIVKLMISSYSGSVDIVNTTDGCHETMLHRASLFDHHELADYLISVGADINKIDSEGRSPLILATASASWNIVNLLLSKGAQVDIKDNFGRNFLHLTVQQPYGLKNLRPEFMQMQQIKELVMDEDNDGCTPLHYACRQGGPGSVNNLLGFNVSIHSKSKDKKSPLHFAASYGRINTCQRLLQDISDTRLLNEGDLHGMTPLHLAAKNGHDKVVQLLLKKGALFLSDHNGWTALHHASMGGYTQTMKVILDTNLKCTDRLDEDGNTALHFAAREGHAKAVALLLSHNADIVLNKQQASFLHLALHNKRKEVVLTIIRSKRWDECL

As to `CCCOCCN(C(=O)CCl)c1c(CC)cccc1CC` [Pretilachlor, pretilachlor], the Kd in series [1] came out at 309 µM. Moreover, in series [1] (1:1 model, TraceDrawer), the “association constant (ka)” value was found to be 14.3 M⁻¹ s⁻¹ and the “dissociation constant (kd)” value is 0.00443 s⁻¹. In series [2], the “calcium influx compared with 0 μM AHs” value is “significantly increased” and the “calcium influx with HC-030031 pre-treatment compared with AHs treatment alone” value is “significantly decreased calcium influx”. Further, the “calcium influx with KO of TRPA1 compared with AHs-treated WT cells” value in series [3] is “significantly decreased calcium influx”. In the series on zebrafish embryos, the toxic effects result is “endocrine disorder, cell apoptosis, and immunotoxicity”.

Consider `CCC(=O)Nc1ccc(Cl)c(Cl)c1` [Propanil, propanil], for which, in series [1], the Kd was 16.2 µM, the kon stood at 2390 M⁻¹ s⁻¹ and the koff worked out at 0.0388 s⁻¹. Further, in series [2], the “calcium influx compared with 0 μM AHs” value was “significantly increased” and the “calcium influx with HC-030031 pre-treatment compared with AHs treatment alone” value is given as “significantly decreased calcium influx”. In addition, in series [3], the “calcium influx with KO of TRPA1 compared with AHs-treated WT cells” value is reported as “significantly decreased calcium influx”.

For `CCc1cccc(C)c1N(C(=O)CCl)C(C)COC` (stereo not shown) [Metolachlor, metolachlor], in series [1], the Kd was determined as 364 µM, the kon amounted to 112 M⁻¹ s⁻¹ and the koff is 0.0408 s⁻¹. Besides, in series [2], the “calcium influx compared with 0 μM AHs” value is given as “significantly increased” and the “calcium influx with HC-030031 pre-treatment compared with AHs treatment alone” value was “significantly decreased calcium influx”. Moreover, in series [3], the “calcium influx with KO of TRPA1 compared with AHs-treated WT cells” value is given as “significantly decreased calcium influx”.

The term Kd denotes the concentration at which binding is half-saturated.
